Each molecule was assayed against 2-acylglycerol O-acyltransferase 2 (Homo sapiens, UniProt Q3SYC2) (assay: Inhibitory Activity).
Procedure: Solutions of the compounds of the present invention in DMSO were each aliquoted into 0.2-μL portions in a 384-well polystyrene microplate produced by Corning Incorporated, and 5 μL of an enzyme solution prepared with an assay buffer (100 mmol/L phosphate buffer (pH 7.4) containing 2 mmol/L DTT) and 5 μL of a substrate solution (100 mmol/L phosphate buffer (pH 7.4), 30 μmol/L 2-Oleoylglycerol, 10 μmol/L Oleoyl-CoA) were added thereto, and the resultant was stirred and centrifuged, and incubated in a moist chamber at room temperature for 1 hour. After enzymatic reaction, 50 μL of a quenching solution (containing 0.2 μmol/L Diolein-d5, 0.4% formic acid, and 50% isopropanol) containing Internal Standard (IS) was added to terminate the reaction, and the resultant was sealed in a plate produced by Shimadzu GLC Ltd., and then stirred and centrifuged, and measurement was performed by using an electrospray ionization method with a RapidFire360 and Agilent 6550 Q-TOF mass spectrometer. Diolein as a reaction product (P) of 2-Oleoylglycerol as the substrate and an ammonium adduct ion of the IS were detected, and the peak intensity ratio, P/IS, was calculated from the peak heights to evaluate the inhibitory activity. Inhibitory activities with/without addition of enzyme were defined as Control (+)/Control (−), respectively, and the respective % inhibitions were defined as 0% inhibition and 100% inhibition. The inhibitory activity was calculated from formula below with TIBCO Spotfire (produced by TIBCO Software Inc.):Inhibitory activity (%)=[1−{Sample−Control(−)}/{Control(+)−Control(−)}]*100where Sample indicates a peak intensity ratio: P/IS, when the compound of the present invention was added.

2-acylglycerol O-acyltransferase 2, sequence (Q3SYC2 whole entry): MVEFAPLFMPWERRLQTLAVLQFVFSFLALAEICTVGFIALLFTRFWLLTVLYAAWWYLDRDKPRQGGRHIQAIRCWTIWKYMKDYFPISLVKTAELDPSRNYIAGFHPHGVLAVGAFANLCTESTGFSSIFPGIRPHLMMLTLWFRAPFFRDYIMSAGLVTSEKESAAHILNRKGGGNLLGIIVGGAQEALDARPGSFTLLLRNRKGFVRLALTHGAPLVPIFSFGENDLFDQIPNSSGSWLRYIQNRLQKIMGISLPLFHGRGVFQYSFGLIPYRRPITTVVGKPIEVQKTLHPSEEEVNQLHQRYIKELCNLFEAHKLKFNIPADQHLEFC

IC50 [nM]	SMILES
12.1	C#Cc1ccc(-n2nc3c(c2C(=O)NS(=O)(=O)C2CC2)C(=O)N[C@@]2(CCc4cc(OCC(F)(F)F)ccc42)C3)nc1 [US11198695, Example II-201]
< 1	CS(=N)(=O)CC(=O)Nc1c2c(nn1-c1ccc(C(F)F)nn1)C[C@]1(CCc3cc(OCC(F)(F)F)ccc31)NC2=O (stereo partly drawn) [US11198695, Example II-281]
26	COc1ccc(-n2nc3c(c2NC(=O)CS(C)(=O)=O)C(=O)N[C@]2(CCc4cc(OCC(F)(F)F)ccc42)C3)cc1 [US11198695, Example I-268]

Reference: BindingDB's records for patent US11198695 (SHIONOGI & CO., LTD., 2021)
